Reference: US8207142B2, “Inhibitor of DNA methylation” (priority 2001, dated 2012)

Assays:
[1] = Toxicity (Table 1 summary of characteristics)
N. crassa = format: cell-based; conditions: Neurospora crassa, 400 nmoles
Experimental: Strains with mutations in dim-2 lack all detectable methyltransferase activity. A dim-2 strain (N613) and a wild-type control (N242) were challenged with a high concentration of Zebularine. The concentration of Zebularine is indicated above the plates and was applied to the paper disc as in FIG. 5; no hygromycin was applied to these plates.
Plate tests were performed with solidified medium essentially as previously described (Selker, Proc. Natl. Acad. Sci. USA 95;9430-9435, 1998). In brief, approximately 2,000 N. crassa conidia of the indicated were plated on each plate. Drugs were administered from a 4-mm diameter Whatman™ no. 1 paper disk placed in the middle of each plate shortly after plating.
Strains with mutations in dim-2 lack all detectable methyltransferase activity (Kouzminova and Selker, “Dim-2 encodes a DNA-methyltransferase responsible for all known cytosine methylation in Neurospora,” EMBO J. Aug. 1, 2001). In order to examine whether Zebularine toxicity is mediated by its methyltransferase-inhibitory activity, dim-2 strain (N613) and a wild-type control (N242) were challenged with a high concentration (400 nmoles) of Zebularine. No hygromycin was applied to these plates.

T24 cells [2] = experiment: Incorporation of Zebularine into DNA and RNA in T24 cells; format: in vitro ADME, human; conditions: 10 μM, 1 μCi, 24 hr
Experimental: FIG. 19 is a bar graph depicting the relative incorporation of Zebularine into DNA and RNA in T24 cells, showing that approximately 7 times the amount of Zebularine is incorporated into RNA as DNA.
Following a similar incubation protocol in T24 cells (Zebularine (10 μM, 1 μCi) for 24 hr, cellular DNA and RNA were isolated by the tri-reagent method according to the manufacture's instructions. Levels of Zebularine and 2′-Deoxyzebularine were determined by measuring total radioactivity in purified RNA and DNA, respectively. The identity of Zebularine and 2′-Deoxyzebularine was accomplished by a reverse phase HPLC analysis of digested RNA and DNA and comparison against authentic standards. In FIG. 19 a bar graph depicts the relative incorporation of Zebularine into DNA and RNA in T24 cells, showing that approximately 7 times the amount of Zebularine is incorporated into RNA as DNA.

EJ6 tumors = EJ6 tumors in BALB/c nu/nu mice, tumor volume and histology; format: in vivo
Experimental: (§1) EJ6 cells (5×10^5/injection) were inoculated subcutaneously into the right and left flanks of male BALB/c nu/nu mice at 4-6 weeks of age (available from Harlan, San Diego, Calif.). Zebularine treatments were initiated after macroscopic (50-200 mm 3) tumor formation (4-6 weeks later). Zebularine (500 mg/kg or 1000 mg/kg) was administered daily via intraperitoneal injection or oral gauage feeding over a period of 18 days. Control mice received 0.45% saline administered via intraperitoneal injection or oral gavage feeding over a period of 18 days. Mice (n=30) were divided into five groups (control group, 500 mg/kg intraperitoneal injection, 500 mg/kg oral, 1000 mg/kg intraperitoneal injection, and 1000 mg/kg oral). Each treatment group consisted of a minimum of five animals (at least 6 tumors per group).
Tumor volumes (TV) were measured with calipers and calculated using the following formula: tumor volume=LD^2/2 (where L is the longest diameter and D is the shortest diameter). The relative tumor volume (RTV) was calculated as: RTV=TVn/TVo, where TVn is the calculated volume at day n. Animals were sacrificed 24 hours after the last treatment. Tumors were removed, immediately fixed with neutral buffered formalin and then embedded in OCT compound for frozen sections. The frozen sections were processed and stained with hematoxylin and eosin (H&E). All histological examinations were carried out by light microscopy using a Leica DM LB microscope (Leica Microsystems, Germany).

[3] = Body weight of tumor-bearing BALB/c nu/nu mice; format: in vivo
Experimental: as §1
Similarly, each group of mice (n=5 or 6) was weighed at the indicated time points, and average body weight was plotted against days after initial treatment in FIG. 14.

[4] = test system: p16 promoter and p16 exon 2; experiment: Continuous long-term treatment of T24 cells, methylation of p16 promoter and p16 exon 2; format: cell-based, human; conditions: 100 μM continuous treatment, Day 14, T24 cells; dropped from ˜96%
DNMT3b3 = target: T1, DNMT3b3 (Homo sapiens, UniProt Q9UBC3); experiment: Western blot of DNMT3b3 level in treated T24 cells; format: cell-based; conditions: 500 μM for 48 h
T1 construct: protein extracts were isolated from both treated and untreated T24; endogenous in cells; host or cells: T24 human bladder carcinoma cells (ATCC)
Experimental: (§2) The mRNA for DNMT3b3 is the only 3b transcript expressed in T24 cells, and DNMT3a levels could not be assessed because no suitable antibodies against DNMT3a are available. Thus, with reference to FIG. 12, protein extracts were isolated from both treated and untreated T24 (population 3 million cells, treated with 500 μM Zebularine for 48 h), and […] with specific antibodies for DNMT1 and DNMT3b3 as shown in FIG. 12. β-actin was included as a loading control, and the molecular weights of each protein are indicated.

[5] = test system: human p16 cDNA in EJ6 tumor cells; experiment: RT-PCR of p16 gene expression in EJ6 tumor cells growing in mice; format: in vivo; conditions: EJ6 tumor cells in BALB/c nu/nu mice after treatment
Experimental: Total RNA was isolated from the tumors to analyze gene expression using conventional methods. DNA also was isolated, to measure the methylation status of p16 promoter by Ms-SnuPE as described below.
GAPDH mRNA levels were measured to control for the quantity and integrity of the input RNA. The control group represents tumors obtained from mice mock-treated either with 0.45% NaCl via intraperitoneal injection or oral gavage feeding. Results from one of six similar independent tumors are shown for each group in FIG. 15.

DNMT1 = target: T2, DNMT1 (Homo sapiens, UniProt P26358); experiment: Western blot of DNMT1 level in treated T24 cells; format: cell-based; conditions: 500 μM for 48 h
T2 construct: protein extracts were isolated from both treated and untreated T24; endogenous in cells; host or cells: T24 human bladder carcinoma cells (ATCC)
T2 sequence (P26358 whole entry): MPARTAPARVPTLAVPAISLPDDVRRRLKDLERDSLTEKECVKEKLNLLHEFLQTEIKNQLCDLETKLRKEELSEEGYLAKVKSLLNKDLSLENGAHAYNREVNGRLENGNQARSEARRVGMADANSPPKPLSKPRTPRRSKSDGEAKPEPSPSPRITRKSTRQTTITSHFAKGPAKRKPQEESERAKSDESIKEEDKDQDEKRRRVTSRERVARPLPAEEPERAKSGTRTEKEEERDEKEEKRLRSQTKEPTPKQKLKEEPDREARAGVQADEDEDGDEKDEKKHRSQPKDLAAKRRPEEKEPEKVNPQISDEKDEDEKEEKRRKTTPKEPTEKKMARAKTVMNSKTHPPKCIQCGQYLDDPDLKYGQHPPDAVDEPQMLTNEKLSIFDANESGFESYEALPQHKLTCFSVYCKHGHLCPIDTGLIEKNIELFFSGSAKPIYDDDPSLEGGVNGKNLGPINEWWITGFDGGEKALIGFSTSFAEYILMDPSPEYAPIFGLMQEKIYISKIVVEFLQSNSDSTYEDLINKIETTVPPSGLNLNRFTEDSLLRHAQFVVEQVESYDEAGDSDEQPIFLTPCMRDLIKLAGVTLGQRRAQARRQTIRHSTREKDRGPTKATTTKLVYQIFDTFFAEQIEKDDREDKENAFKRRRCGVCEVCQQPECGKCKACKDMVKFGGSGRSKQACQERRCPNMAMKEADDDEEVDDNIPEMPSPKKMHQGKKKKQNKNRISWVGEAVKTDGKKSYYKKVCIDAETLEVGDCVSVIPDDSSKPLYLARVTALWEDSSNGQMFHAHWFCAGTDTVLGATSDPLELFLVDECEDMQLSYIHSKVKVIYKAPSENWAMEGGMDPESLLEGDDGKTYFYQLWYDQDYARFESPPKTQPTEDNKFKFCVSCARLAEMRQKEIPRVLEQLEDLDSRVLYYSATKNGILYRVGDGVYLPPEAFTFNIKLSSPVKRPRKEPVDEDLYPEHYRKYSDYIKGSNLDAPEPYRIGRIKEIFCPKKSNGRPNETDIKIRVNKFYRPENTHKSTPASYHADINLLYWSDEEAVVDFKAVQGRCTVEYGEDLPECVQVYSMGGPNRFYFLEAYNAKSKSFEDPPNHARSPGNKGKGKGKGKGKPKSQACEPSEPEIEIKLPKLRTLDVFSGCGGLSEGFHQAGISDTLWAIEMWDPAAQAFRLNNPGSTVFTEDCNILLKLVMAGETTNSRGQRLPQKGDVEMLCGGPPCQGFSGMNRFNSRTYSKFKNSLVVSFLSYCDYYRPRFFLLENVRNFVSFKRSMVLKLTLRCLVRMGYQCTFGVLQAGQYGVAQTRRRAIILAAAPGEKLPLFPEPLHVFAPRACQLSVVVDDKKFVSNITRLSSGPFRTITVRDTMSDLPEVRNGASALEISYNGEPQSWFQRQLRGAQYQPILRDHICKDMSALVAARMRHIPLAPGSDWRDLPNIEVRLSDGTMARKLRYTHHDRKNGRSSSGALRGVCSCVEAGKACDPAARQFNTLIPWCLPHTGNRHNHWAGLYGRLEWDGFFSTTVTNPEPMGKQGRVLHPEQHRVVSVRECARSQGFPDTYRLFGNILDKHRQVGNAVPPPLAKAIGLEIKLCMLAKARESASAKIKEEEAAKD
Experimental: as §2

T24 cells [6] = experiment: Zebularine metabolites in T24 cells (SAX-10 HPLC); format: in vitro ADME, human; conditions: 6 hr incubation
Experimental: ZB, ZB-MP, ZB-DP and ZB-TP correspond, respectively, to Zebularine, 5′-mono, 5′-di- and 5′-triphosphate metabolites. There are two unidentified metabolites, indicated by the symbols ?1 and ?2.
Zebularine metabolites were identified after incubation of human bladder cancer cells (T24) in DMEM+10% FCS medium with antibiotics. Zebularine (10 μM, 1 μCi), specific activity 200 DPM/pmole was used in these experiments. At the end of the incubation, cells were extracted with 60% methanol and aliquots were analyzed by SAX-10 HPLC using a methanolwater gradient as follows: 1-5 min 1% MeOH, 5-25 min gradient to 25% MeOH, 25-35 min isocratic with 25% MeOH and back to 1% MeOH after 10 min. The phosphorylated metabolites were identified by comparison with authentic synthetic standards. Using this methodology formation of metabolites as a function of concentration after a 6 hr incubation period was investigated (FIG. 17). The major metabolite formed was the 5′-triphosphate.

[7] = all treated groups: 500 or 1000 mg/kg daily, intraperitoneal or oral, 18 days

SMILES	Toxicity [1]	region of conidia toxicity around the filter disk, dim-2 vs wild type (N. crassa)	amount incorporated into RNA relative to DNA (T24 cells [2])	tumor regression (EJ6 tumors; 1000 mg/kg orally or intraperitoneally, daily, 18 days)	tumor growth (relative tumor volume) vs control group (EJ6 tumors; [7])	ratio of tumor cells to stroma (H&E stained tumor sections), treated versus untreated (EJ6 tumors; tumors removed 24 hours after the last treatment)	weight loss [3, 7]	greatest weight loss ([3]; group treated with 1000 mg/kg) [%]	methylation level at maximum demethylation [4] [%]	level of DNMT3b3 (DNMT3b3)	p16 gene expression in vivo (RT-PCR) [5]	level of DNMT1 (DNMT1)	major metabolite formed (T24 cells [6])
Nc1ncn([C@@H]2O[C@H](CO)[C@@H](O)[C@H]2O)c(=O)n1 [5-Aza-CR, 5-azacytidine, reference compound]	High												
O=c1ncccn1[C@@H]1O[C@H](CO)[C@@H](O)[C@H]1O [Zebularine, 1-β-ribofuranosyl-1,2-dihydropyrimidin-2-one]		roughly equivalent in both dim-2 and wildtype strains	approximately 7 times	tumor regression was observed	tumor growth appeared suppressed	lower ratio of tumor cells to stroma	weight loss was minimal	~7	~47	significant reduction	Reactivation of p16 gene expression	significant reduction	5′-triphosphate
